Test results published in patent US20150150842A1, “DESETHYLAMIODARONE COMPOSITIONS” (priority 2012, published 2015).
Where “and” joins values, the source holds several entries; their conditions need not be identical. Equal entries are not always repeated.

What was measured:
dogs = conditions: 4 weeks oral AMIO 45 mg/kg (from 243.2 ms, SE=9.7 after) or DEA 30 mg/kg (from 243.6 ms, SE=7.3 after)
[1] = tested on: dog atrial and ventricular tissue; assay: Atrial and ventricular action potential parameters after chronic oral treatment of non-instrumented dogs; format: in vivo, Beagle dogs; conditions: 500 ms cycle length, 4-week oral DEA 30 or AMIO 45 mg/kg/day
[2] = tested on: cardiac thyroid receptors; conditions: reported earlier (van Beeren et al, 1995; Latham et al, 1987); cited from earlier work
conscious rats = tested on: conscious rats
Procedure: The present experiments were performed on male, Sprague-Dawley CFY rats weighing 260-300 g. During a preliminary open-chest surgery we applied a loose silk loop around the left main coronary artery, and then the chest was closed (Leprán et al., 1983). Seven-eight days after the preliminary surgery—after complete recovery and healing—the loose silk loop was tightened to occlude the coronary artery in conscious, freely moving animals. During the first 15 min of myocardial infarction a bipolar ECG was recorded continuously (PowerLab 8SP, ADInstruments, Great Britain).
We followed the survival rate during the acute phase (first 15 min) and during the subsequent 16 hours after coronary artery occlusion. The incidence and duration of arrhythmias in the acute phase were evaluated according to the Lambeth Conventions (Walker et al., 1988), i.e. ventricular fibrillation, ventricular tachycardia, and other types of arrhythmias, including ventricular extrasystoles, bigeminy, and salvos. The size of myocardial infarction was measured in the animals surviving for 16 hours after coronary artery occlusion using nitrotetrazolium-blue dye staining.
Long-term oral pretreatment was applied for 1 month before the coronary artery occlusion. […] Control animals were given the vehicle in a volume of 5 ml/kg.

[3] = tested on: conscious dogs with structural atrial remodelling; assay: Chronic rapid atrial pacing induced atrial remodelling and burst-induced atrial fibrillation in conscious dogs
Procedure: The experiments were performed on chronically instrumented Beagle dogs of both sexes, weighing 12-13 kg. The animals were subjected to the following surgery under general anaesthesia: pacemakers were implanted into bilateral subcutaneous pockets in the neck area (Logos, Karios; Biotronik Hungaria Ltd.) and were attached to pacemaker electrodes implanted into the right ventricle and right atrium. Radiofrequency catheter ablation was performed in each animal to achieve third degree atrioventricular (AV) block so that during subsequent rapid atrial pacing (400/min) the ventricles are protected from high heart rates. […] On the seventh day after surgery, following the measurement of right atrial effective refractory period the atrial pacemaker was set to a frequency of 400/min to achieve atrial electrical and structural remodelling. Right atrial rapid pacing is necessary to maintain for 3 months in this model to obtain complete remodeling of the atria signalled by the reduction of right atrial effective refractory period below 80 ms.
The body weight of animals was monitored for strict adherence to the desired dose.
The right atrial effective refractory period (ERP) was measured using the S1 -S2 protocol at cycle lengths of 150 and 300 ms. In addition ERP monitoring, 10-second long burst stimuli were applied at 800/min frequency to induce atrial fibrillation and the incidence of AF, the duration of AF episodes were measured before commencement of oral drug therapy and then after the initiation of therapy every 4 days.

isolated rabbit heart = assay: Atrial fibrillation induced by rapid atrial pacing with carbachol in isolated (Langendorff) rabbit heart; design: species or system New Zealand white rabbits
Procedure: Hearts from New Zealand white rabbits (1-2 kg) were used in the experiments. Animals were treated with an intravenous injection of 400 IU/kg heparin and anaesthetized by intravenous infusion of 30 mg/kg pentobarbital and sacrificed by cervical dislocation. The protocols were approved by the Department of Animal Health and Food Control of the Ministry of Agriculture and Rural Development, Hungary (XIII/01031/000/2008) and by the Ethical Committee for the Protection of Animals in Research of the University of Szeged, Szeged, Hungary (approval number I-74-125-2007). After median thoracotomy the heart was quickly removed and placed into cold (4° C.) Krebs-Henseleit solution (KHS) containing (in mM): NaCl 118, KCl 4.3, KH2PO4 1.2, MgSO4 1.2, Na pyruvate 5, NaHCO3 25, glucose 11, CaCl2 1.8, pH 7.4 when gassed with a mixture of 95% O2 and 5% CO2. The heart was then mounted on a modified Langendorff apparatus and perfused retrogradely through the aorta with oxygenated KHS warmed to 37° C. The pulmonary vein was also cannulated in order to perfuse the left atrial chamber. In order to record the optical monophasic action potentials the hearts were also loaded with the voltage sensitive fluorescent dye di-4 Anneps for 5 min. To stop the cardiac contractions and avoid motion artefacts during the optical image acquisition the electrical and mechanical activity of the heart was uncoupled by adding 11 mM 2,3-butanedione monoxime to the perfusate.
Epicardial electrograms from the left atrial and left ventricular wall were amplified with a surface electrode amplifier (Experimetria, Hungary) and monitored using a high frequency oscilloscope (Leader Electronics Corporation, Korea). […] The high resolution optical action potential mapping system consisted of a light-emitting diode (LED) lamp as an excitation light source at a wavelength of 527 nm and a high-resolution, high-speed metal-oxide-semiconductor (CMOS) camera (MiCam02, type MCO2C4) equipped with an 580 nm long pass filter for acquiring the fluorescence images from the surface of the heart at a frequency of 833 Hz. Fluorescence images were analyzed using the Brainvison Analyze software (Brainvision Inc Tokyo, Japan).
After allowing the hearts to stabilize for 15 min, acute episodes of atrial fibrillation were induced with rapid electrical stimulation of the atria at a rate of 50 Hz for 10 sec in the presence of 1 μM carbachol in the perfusate. […] All data are expressed as mean±SEM.
All chemicals were purchased from Sigma-Aldrich (St. Louis, Mo., USA), except DEA and di-4 Anneps. Di-4 Anneps was purchased from Molecular Probes Inc. (Eugene, Oreg., USA). […]

rats = assay: Chronic 28-day non-GLP toxicology in rats

Compound: CCCCc1oc2ccccc2c1C(=O)c1cc(I)c(OCCNCC)c(I)c1 [DEA, (2-Butylbenzofuran-3-yl)-[4-(2-ethylaminoethoxy)-3,5-diiodophenyl]methanone]
- ECG QTc interval after treatment (dogs): 266.9 ms
- Vmax (V/s), Dog atrium ([1]; n = 3, CONTROL 249.7 ± 52.7): 231.5 ± 45.4 V/s
- APD90 (ms), Dog atrium ([1]; n = 4, CONTROL 123.9 ± 9.6): 156.6 ± 12.6 ms
- Affinity for cardiac thyroid receptors compared to AMIO [2]: higher affinity
- Death due to the 1 month treatment (conscious rats; 1 month oral pretreatment): No death occurred
- Survival rate during the acute phase of experimental myocardial infarction (conscious rats; 1 month oral pretreatment): significantly improved
- Behavioral changes, body weight increments (conscious rats; 1 month oral pretreatment, AMIO 30 or 100, DEA 15 or 50 mg/kg/day): Neither AMIO nor DEA produced any behavioral changes of the animals, or in body weight increments
- Arrhythmia score (conscious rats; first 15 min after coronary artery occlusion, 1 month oral AMIO 100 or DEA 50 mg/kg/day, control 4.77±0.33): 3.27±0.56
- Incidence of ventricular fibrillation (conscious rats; larger doses (AMIO 100, DEA 50 mg/kg/day), after coronary artery occlusion): significantly decreased
- AF duration (s), Following 4-week treatment, individual animals ([3]; oral DEA 25 mg/kg/day, Control (before) 1 122.6, 1 505.8, 6 739.1): 21.6 s and 44 s and 1.9 s
- Lg AF duration, Following 4-week treatment, individual animals ([3]; oral DEA 25 mg/kg/day, Control (before) 3.05, 3.17, 3.82): 1.33 and 1.64 and 0.28
- ERP, Following 4-week treatment, individual animals ([3]; oral DEA 25 mg/kg/day, animals 2010/06, 2010/11, 2010/14, Control (before) <80 in all): 80 ms (2×) and <80 ms
- Incidence of AF, Following 4-week treatment, individual animals ([3]; oral DEA 25 mg/kg/day, burst-induced AF, Control (before) 60%, 50%, 27%): 10% (2×) and 27%
- Lg AF duration, Following 4-week treatment, Mean ± SE ([3]; oral DEA 25 mg/kg/day, n=3, Control (before) 3.35 ± 0.24): 1.08 ± 0.41
- Incidence of AF, Following 4-week treatment, Mean ± SE ([3]; oral DEA 25 mg/kg/day, n=3, Control (before) 45.7 ± 9.77): 15.7 ± 5.67%
- AF duration (s), Following 4-week treatment, Mean ± SE ([3]; oral DEA 25 mg/kg/day, n=3, Control (before) 3122 ± 1811.7): 22.5 ± 12.16 s
- Incidence and duration of atrial fibrillation ([3]; three animals, 4-week oral treatment, DEA 25, AMIO 50 mg/kg/day, accompanied by prolongation of the ERP): markedly and significantly decreased
- Occurrence of atrial fibrillation, After treatment (number of hearts) (isolated rabbit heart; 1 μM carbachol, 50 Hz pacing 10 sec, DEA 5 μM, before treatment 5 of 5 hearts): 0 of 5 and 0
- Occurrence of atrial fibrillation after treatment, % (isolated rabbit heart; 1 μM carbachol, DEA 5 μM, Control 77): 0%
- Average duration of atrial fibrillation episodes, After treatment (isolated rabbit heart; 1 μM carbachol, DEA 5 μM, mean±SEM, before treatment 110.2 ± 37.1): 0 ± 0
- Occurrence of atrial fibrillation (isolated rabbit heart; second trial): completely prevented the occurrence of atrial fibrillation
- Detection of the administered drug 14 days after the completion of administration (rats; 28-day oral AMIO 200 mg/kg/day or DEA 100 mg/kg/day, plasma (DEA: plasma or cardiac tissue)): not detected in plasma or cardiac tissue samples
- Elimination of DEA compared to AMIO (rats; 28-day oral study): significantly faster
